Assay results reported in ChEMBL document CHEMBL1201862, “PubChem BioAssay data set” (2004).
The source made the active and inactive calls.

Key:
T-cell = assay: loss of vesicle association with mouse CD8+ T cells – mouse 2C CD8+ T cells, flow cytometry, dose response (AID 485284); type: functional
[1] = Luminescence Cell-Based Dose Confirmation HTS to Identify Activators of 5'UTR Stem-Loop Driven Alpha-Synuclein mRNA Translation in H4 Neuroglioblastoma Cells. [Related pubchem assays: 1829 (Project Summary), 1814 (Primary HTS)]; type: functional
H4 = assay: Luminescence Cell-Based Dose Response HTS to Identify Activators of 5'UTR Stem-Loop Driven Prion Protein mRNA Translation in H4 Neuroglioblastoma Cells. [Related pubchem assays: 1829 (Project Summary), 1814 (Primary HTS)]; type: functional; conditions: Homo sapiens
[2] = Luminescence Cell-Based Dose Response HTS to Identify Activators of Luciferase Translation or Activity in H4 […] Cells. [Related pubchem assays: 1829 (Project Summary), 1814 (Primary HTS)]; type: functional
[3] = Vero E6 cell cytotoxicity, dose response, cytotoxicity control for non-replicating M. tuberculosis project, secondary assay (AID 492998); type: functional, VeroE6; conditions: Vero C1008
X-box-binding protein 1 = X-box-binding protein 1 (Homo sapiens, UniProt P17861); type: functional, Cricetulus griseus;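 also: confirmatory dose-response counter-screen serving a CHOP assay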
[4] = molecular target: DNA damage-inducible transcript 3 protein (Mus musculus, UniProt P35639); type: functional, Cricetulus griseus
cells = type: functional, cell-based
[5] = Luminescence Cell-Based Dose Response HTS to Identify Activators of Luciferase Translation or Activity in H4-C Neuroglioblastoma Cells. [Related pubchem assays: 1829 (Project Summary), 1814 (Primary HTS)]; type: functional
[6] = luciferase reporter signal reduction – luminescence, H4-C neuroglioblastoma cells, dose response (AID 2458); type: functional, cell-based;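 also: H4 neuroglioblastoma cells stably carrying a luciferase reporter gene fusion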
BJ [7] = assay: cells; type: functional, cell-based; conditions: Homo sapiens
[8] = luciferase reporter signal suppression in cells – H4 neuroglioma cells, luminescence, dose response (AID 1990); type: functional, cell-based
[9] = alpha-synuclein stem-loop translation blockers – luminescence, H4 neuroglioblastoma cells, dose confirmation, confirmation (AID 2454); type: functional, cell-based;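 also: H4 neuroglioblastoma cells carrying an alpha-synuclein 5'UTR luciferase reporter; potency for inhibition of the luciferase signal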
[10] = Luminescence Cell-Based Dose Response HTS to Identify Inhibitors of Luciferase Translation or Activity in H4-C Neuroglioblastoma Cells. [Related pubchem assays: 1813 (Primary HTS), 1827 (Project Summary)]; type: functional
[11] = alpha-synuclein stem-loop luciferase translation blockers – H4 neuroglioma cells, luminescence, confirmation (AID 1988); type: functional, cell-based
[12] = Luminescence Cell-Based Dose Retest to Confirm Activators of 5'UTR Stem-Loop Driven Alpha-Synuclein mRNA Translation in H4 Neuroglioblastoma Cells. [Related pubchem assays (depositor defined):AID1813, AID1829]; type: functional
[13] = Luminescence Cell-Based Dose Confirmation HTS to Identify Inhibitors of 5'UTR Stem-Loop Driven Alpha-Synuclein mRNA Translation in H4 Neuroglioblastoma Cells. [Related pubchem assays: 1827 (Project Summary), 1813 (Primary HTS)]; type: functional
BJ [14] = assay: BJ-TERT-LT-ST fibroblast viability loss – cell-based, RAS-independent, luminescence, dose response (AID 1935); type: functional; conditions: Homo sapiens;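 also: BJ fibroblasts immortalized with TERT plus LT and ST oncogenes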
BJ [15] = assay: BJ-TERT fibroblast viability loss – cell-based, RAS-independent, luminescence, dose response (AID 1933); type: functional; conditions: Homo sapiens
[16] = DRD fibroblast viability loss – cell-based, non-viral oncogenic, luminescence, dose response (AID 1934); type: functional; conditions: Homo sapiens
[17] = Luminescence Cell-Based Dose HTS Response to Identify Inhibitors of 5'UTR Stem-Loop Driven Prion Protein mRNA Translation in H4-C Neuroglioblastoma Cells. [Related pubchem assays (depositor defined):AID1814, AID1827]; type: functional
[18] = Luminescence Cell-Based Dose Response HTS to Identify Activators of 5'UTR Stem-Loop Driven Prion Protein mRNA Translation in H4-C Neuroglioblastoma Cells. [Related pubchem assays: 1829 (Project Summary), 1814 (Primary HTS)]; type: functional
[19] = molecular target: T1, Ubiquitin-conjugating enzyme E2 N (Homo sapiens, UniProt P61088); type: functional
T1 sequence (P61088 whole entry): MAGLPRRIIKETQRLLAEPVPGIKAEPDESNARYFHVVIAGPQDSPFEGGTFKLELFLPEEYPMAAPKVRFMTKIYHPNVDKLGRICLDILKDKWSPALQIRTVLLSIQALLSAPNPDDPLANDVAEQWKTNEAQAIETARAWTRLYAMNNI

[20] = molecular target: T2, Type-1 angiotensin II receptor (Homo sapiens, UniProt P30556); assay: agonist activity at AGTR1 – cell-based, uHTS hits, selectivity assay for APJ receptor agonist project, dose response (AID 488865); type: functional;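 also: beta-arrestin recruitment to AT1 measured by enzyme fragment complementation luminescence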
T2 sequence (P30556 whole entry): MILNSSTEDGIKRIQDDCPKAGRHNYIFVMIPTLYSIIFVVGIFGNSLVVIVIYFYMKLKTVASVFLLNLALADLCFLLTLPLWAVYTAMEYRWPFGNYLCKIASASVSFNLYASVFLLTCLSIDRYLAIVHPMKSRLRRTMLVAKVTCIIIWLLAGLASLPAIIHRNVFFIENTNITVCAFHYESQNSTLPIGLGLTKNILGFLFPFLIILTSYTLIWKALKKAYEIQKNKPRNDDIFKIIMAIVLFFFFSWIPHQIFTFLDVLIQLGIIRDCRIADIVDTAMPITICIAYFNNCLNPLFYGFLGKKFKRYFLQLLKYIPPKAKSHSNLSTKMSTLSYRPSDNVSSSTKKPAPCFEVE

[21] = molecular target: T3, DNA repair protein RAD52 homolog (Homo sapiens, UniProt P43351); type: functional, biochemical
T3 sequence (P43351 whole entry): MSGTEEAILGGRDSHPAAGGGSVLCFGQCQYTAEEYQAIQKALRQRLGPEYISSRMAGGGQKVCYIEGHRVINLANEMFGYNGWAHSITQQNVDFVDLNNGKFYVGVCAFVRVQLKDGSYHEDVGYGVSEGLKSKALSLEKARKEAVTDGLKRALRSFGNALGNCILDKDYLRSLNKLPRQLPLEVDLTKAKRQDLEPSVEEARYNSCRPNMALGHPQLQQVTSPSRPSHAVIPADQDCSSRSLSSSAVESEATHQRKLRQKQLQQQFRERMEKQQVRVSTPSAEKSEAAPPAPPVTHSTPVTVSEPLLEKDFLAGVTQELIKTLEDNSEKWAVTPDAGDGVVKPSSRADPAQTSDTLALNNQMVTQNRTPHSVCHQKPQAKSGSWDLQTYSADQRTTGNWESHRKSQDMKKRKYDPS

[22] = molecular target: T1, Ubiquitin-conjugating enzyme E2 N; type: functional; remark: listed apart in the source
Bcl-2-related protein A1 = molecular target: T4, Bcl-2-related protein A1 (Mus musculus, UniProt Q07440); type: functional;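 also: confirmatory dose–response counterscreen on Bfl-1, used to check hits from a UBC13 polyubiquitin inhibitor campaign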
T4 sequence (Q07440 whole entry): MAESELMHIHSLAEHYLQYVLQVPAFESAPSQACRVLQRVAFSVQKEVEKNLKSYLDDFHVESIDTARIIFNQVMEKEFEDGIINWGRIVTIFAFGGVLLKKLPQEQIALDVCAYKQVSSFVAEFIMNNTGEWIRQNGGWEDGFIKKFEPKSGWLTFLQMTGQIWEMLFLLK

Coagulation factor XII = molecular target: T5, Coagulation factor XII (Homo sapiens, UniProt P00748); assay: activated coagulation factor XII inhibitor potency, concentration-effect curve, cell-free (AID 716); type: functional
T5 sequence (P00748 whole entry): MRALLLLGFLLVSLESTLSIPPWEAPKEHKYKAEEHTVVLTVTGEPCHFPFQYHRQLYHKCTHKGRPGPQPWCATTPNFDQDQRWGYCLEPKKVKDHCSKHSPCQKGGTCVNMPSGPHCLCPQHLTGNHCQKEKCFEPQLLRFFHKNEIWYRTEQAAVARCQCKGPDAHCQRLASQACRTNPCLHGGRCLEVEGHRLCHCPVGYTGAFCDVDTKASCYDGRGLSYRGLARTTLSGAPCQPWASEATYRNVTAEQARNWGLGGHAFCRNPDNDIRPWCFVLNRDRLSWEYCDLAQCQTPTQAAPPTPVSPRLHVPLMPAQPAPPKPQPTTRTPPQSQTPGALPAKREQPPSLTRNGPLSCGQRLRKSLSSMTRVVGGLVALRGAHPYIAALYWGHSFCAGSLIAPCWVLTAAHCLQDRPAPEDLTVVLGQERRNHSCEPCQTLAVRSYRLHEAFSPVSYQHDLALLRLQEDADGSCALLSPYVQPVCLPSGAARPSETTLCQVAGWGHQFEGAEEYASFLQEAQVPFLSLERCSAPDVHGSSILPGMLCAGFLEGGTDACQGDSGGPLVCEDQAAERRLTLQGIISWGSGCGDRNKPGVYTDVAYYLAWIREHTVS

Chain of X-box-binding protein 1 (P17861 whole entry): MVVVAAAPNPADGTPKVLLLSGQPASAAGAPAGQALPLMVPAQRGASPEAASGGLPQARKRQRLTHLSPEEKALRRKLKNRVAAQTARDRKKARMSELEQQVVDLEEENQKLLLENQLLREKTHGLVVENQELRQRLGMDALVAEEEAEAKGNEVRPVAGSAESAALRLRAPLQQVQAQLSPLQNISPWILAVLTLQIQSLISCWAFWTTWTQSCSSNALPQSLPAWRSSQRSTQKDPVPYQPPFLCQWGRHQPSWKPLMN
Chain of DNA damage-inducible transcript 3 protein (P35639 whole entry): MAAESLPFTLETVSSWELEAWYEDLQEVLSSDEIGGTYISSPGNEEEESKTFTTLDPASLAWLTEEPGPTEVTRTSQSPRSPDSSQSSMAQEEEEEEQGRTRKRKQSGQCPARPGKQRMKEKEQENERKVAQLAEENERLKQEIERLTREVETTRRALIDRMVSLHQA

For O=C(CC1=NCCNC(c2ccccc2)C1)c1ccccc1O (stereo not drawn), the EC50 (T-cell) was 0.565 µM (active), the EC50 [1] was 69.3 µM (active) and the EC50 (H4) was 67.6 µM (active). For the same molecule, the EC50 [2] was 43.1 µM (active).

For O=C1NN(c2ccccc2)C(=O)/C1=C/c1ccc(Sc2ccc(Cl)cc2)o1, the CC50 [3] was > 20 µM (active), the “Absolute IC50 (XBP1)” value (X-box-binding protein 1) was 10 µM and the “Absolute IC50 (CHOP)” value [4] was 10 µM.

For O=C(c1ccc(C[S+]([O-])c2ccccc2Cl)o1)N1CCN(c2ccccc2)CC1 (stereo not drawn), the EC50 (cells) was > 12 µM (not active), the EC50 [5] was 1.46 µM (inconclusive) and the EC50 [6] was 1.16 µM (active). For the same molecule, the EC50 (BJ [7]) was 25.9 µM (active), the EC50 [8] was 8.01 µM (active) and the EC50 [9] was 2.83 µM (active). For the same molecule, the EC50 [10] was 1.46 µM (active), the EC50 [11] was < 0.1 µM (active) and the EC50 [12] was 0.811 µM (inconclusive). For the same molecule, the EC50 [13] was 0.811 µM (active), the EC50 (BJ [14]) was 1.22 µM (active) and the EC50 (BJ [15]) was 1.18 µM (active). For the same molecule, the EC50 [16] was 0.614 µM (active), the EC50 [17] was 0.464 µM (active) and the EC50 [18] was 0.464 µM (inconclusive).

With COc1cccc2sc(N(CCCN(C)C)C(=O)c3ccc(S(=O)(=O)N4CCc5ccccc5C4)cc3)nc12 the IC50 [19] was 13.9 µM (active), the EC50 [20] was > 100 µM (inactive) and the AC50 [21] was 23.1 µM (active). For the same molecule, the IC50 [22] was 10.8 µM (active) and the IC50 (Bcl-2-related protein A1) was > 20 µM (inactive).

For O=C(CN1C(=O)c2ccccc2S1(=O)=O)N1CCN(c2ccccc2F)CC1, the IC50 (Coagulation factor XII) was > 50 µM (inactive).
